Results as given in ChEMBL document CHEMBL5038666, “Discovery of DNA-Targeting HDAC Inhibitors with Potent Antitumor Efficacy In Vivo That Trigger Antitumor Immunity” (J Med Chem, 2022).
Active and inactive are the calls of the source. The rule behind the calls is not given here.

Legend:
[1] = Toxicity in C57BL/6J mouse implanted with mouse B16-F10 cells assessed as effect on body weight at 60 mg/kg, IG administered for 12 days; type: organism-based; settings: in vivo, po, 288 h, time 12 day
[2] = target: Histone deacetylase 2 (Homo sapiens, UniProt Q92769); test: Inhibition of HDAC2 (unknown origin) using fluorogenic substrate incubated for 30 mins by fluorescence based assay
[3] = Toxicity in C57BL/6J mouse implanted with mouse B16-F10 cells assessed as liver damage at 60 mg/kg, IG administered for 12 days H and E staining based histopathological analysis; type: organism-based; settings: in vivo, po, 288 h, time 12 day
[4] = target: Histone deacetylase 1 (Homo sapiens, UniProt Q13547); test: Inhibition of HDAC1 (unknown origin) using fluorogenic substrate incubated for 30 mins by fluorescence based assay
[5] = system: B16-F10; test: Antitumor immunity against mouse B16-F10 cells implanted in C57BL/6J mouse assessed as fold increase in proportion of macrophages in spleen by flow cytometry analysis relative to control; type: functional
[6] = system: PC-3; test: cells; type: functional, cell-based; settings: Homo sapiens, PC-3, 48 h
Description: Antiproliferative activity against human PC3 cells assessed as inhibition of cell growth measured after 48 hrs by MTT assay

[7] = system: B16-F10; test: cells; type: functional, cell-based; settings: Mus musculus, B16-F10, 48 h
Description: Antiproliferative activity against mouse B16-F10 cells assessed as inhibition of cell growth measured after 48 hrs by MTT assay

[8] = target: T1, Protein deacetylase HDAC6 (Homo sapiens, UniProt Q9UBN7); test: Inhibition of HDAC6 (unknown origin) using fluorogenic substrate incubated for 30 mins by fluorescence based assay
T1 sequence (Q9UBN7 whole entry): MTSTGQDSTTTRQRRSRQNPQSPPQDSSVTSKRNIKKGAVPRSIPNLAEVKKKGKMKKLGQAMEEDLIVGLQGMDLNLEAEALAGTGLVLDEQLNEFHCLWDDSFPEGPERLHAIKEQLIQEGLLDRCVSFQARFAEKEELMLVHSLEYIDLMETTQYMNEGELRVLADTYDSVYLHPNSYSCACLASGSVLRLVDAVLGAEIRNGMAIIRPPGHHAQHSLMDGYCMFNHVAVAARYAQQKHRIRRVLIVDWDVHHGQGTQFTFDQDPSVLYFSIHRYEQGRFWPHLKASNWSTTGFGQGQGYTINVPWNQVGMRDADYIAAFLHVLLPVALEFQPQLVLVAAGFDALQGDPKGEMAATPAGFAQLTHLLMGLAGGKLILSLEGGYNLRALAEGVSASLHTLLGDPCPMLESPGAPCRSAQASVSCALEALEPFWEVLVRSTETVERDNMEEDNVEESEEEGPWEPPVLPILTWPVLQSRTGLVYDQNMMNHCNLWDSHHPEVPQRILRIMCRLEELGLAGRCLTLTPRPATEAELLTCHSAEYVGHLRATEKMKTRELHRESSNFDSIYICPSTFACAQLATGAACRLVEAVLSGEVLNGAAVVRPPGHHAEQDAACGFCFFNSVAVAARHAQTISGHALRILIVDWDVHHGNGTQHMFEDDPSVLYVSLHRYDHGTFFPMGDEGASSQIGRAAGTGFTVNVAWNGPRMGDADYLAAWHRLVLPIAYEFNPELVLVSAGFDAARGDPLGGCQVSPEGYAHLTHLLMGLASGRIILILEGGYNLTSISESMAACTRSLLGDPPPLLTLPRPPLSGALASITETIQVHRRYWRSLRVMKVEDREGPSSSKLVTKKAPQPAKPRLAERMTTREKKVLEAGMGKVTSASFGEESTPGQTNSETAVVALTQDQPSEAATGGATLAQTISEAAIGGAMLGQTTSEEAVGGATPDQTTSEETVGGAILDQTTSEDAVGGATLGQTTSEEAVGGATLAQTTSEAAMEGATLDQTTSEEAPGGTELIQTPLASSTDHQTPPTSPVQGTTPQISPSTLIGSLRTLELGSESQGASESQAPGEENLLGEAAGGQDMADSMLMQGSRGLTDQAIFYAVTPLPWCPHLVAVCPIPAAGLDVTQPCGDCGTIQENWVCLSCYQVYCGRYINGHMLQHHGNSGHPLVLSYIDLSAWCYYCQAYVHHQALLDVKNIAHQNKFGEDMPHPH

[9] = target: Histone deacetylase; test: Inhibition of HDAC in human HeLa nuclear extract using fluorogenic substrate incubated for 30 mins by fluorescence based assay; type: cell-based
[10] = system: K562; test: cells; type: functional, cell-based; settings: Homo sapiens, K562, 48 h
Description: Antiproliferative activity against human K562 cells assessed as inhibition of cell growth measured after 48 hrs by MTT assay

[11] = system: B16-F10; test: Antitumor activity against mouse B16-F10 cells implanted in C57BL/6J mouse assessed as reduction on tumor weight at 60 mg/kg, IG administered for 12 days; type: functional, organism-based; settings: time 12.0 day
[12] = system: HEL; test: Antitumor activity against HEL cells xenografted in mouse assessed as inhibition of tumor growth at 90 mg/kg, ip administered for 20 days; type: functional, organism-based; settings: Homo sapiens, time 20.0 day
[13] = system: B16-F10; test: Antitumor activity against mouse B16-F10 cells implanted in C57BL/6J mouse assessed as reduction on tumor size at 60 mg/kg, IG administered for 12 days; type: functional, organism-based; settings: time 12.0 day
[14] = system: B16-F10; test: Antitumor activity against mouse B16-F10 cells implanted in C57BL/6J mouse assessed as reduction on tumor volume at 60 mg/kg, IG administered for 12 days; type: functional, organism-based; settings: time 12.0 day
[15] = system: B16-F10; test: Antitumor immunity against mouse B16-F10 cells implanted in C57BL/6J mouse assessed as fold increase in downregulation of CD200R expression in spleen by flow cytometry analysis relative to control; type: functional
[16] = system: B16-F10; test: Induction of apoptosis in mouse B16-F10 cells at 5 to 10 uM measured after 24 hrs by Annexin V-FITC/propidium iodide staining based flow cytometry analysis; type: functional, cell-based; settings: dose 5-10 µM
[17] = target: T2, Histone deacetylase 8 (Homo sapiens, UniProt Q9BY41); test: Inhibition of HDAC8 (unknown origin) using fluorogenic substrate incubated for 30 mins by fluorescence based assay
T2 sequence (Q9BY41 whole entry): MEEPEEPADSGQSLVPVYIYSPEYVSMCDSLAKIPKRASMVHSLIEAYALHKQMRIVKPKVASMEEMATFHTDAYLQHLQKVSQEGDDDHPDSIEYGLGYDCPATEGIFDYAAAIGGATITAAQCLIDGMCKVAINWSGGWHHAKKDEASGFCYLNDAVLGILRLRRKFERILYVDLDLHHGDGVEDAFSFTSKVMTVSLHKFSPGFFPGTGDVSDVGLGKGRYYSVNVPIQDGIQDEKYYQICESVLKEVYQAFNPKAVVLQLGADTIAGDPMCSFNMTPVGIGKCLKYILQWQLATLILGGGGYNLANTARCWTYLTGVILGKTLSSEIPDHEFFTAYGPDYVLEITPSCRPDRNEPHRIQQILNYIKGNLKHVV

[18] = Toxicity in C57BL/6J mouse implanted with mouse B16-F10 cells assessed as heart damage at 60 mg/kg, IG administered for 12 days H and E staining based histopathological analysis; type: organism-based; settings: in vivo, po, 288 h, time 12 day
[19] = system: KG-1; test: Antiproliferative activity against human KG-1 cells assessed as inhibition of cell growth measured after 48 hrs by MTT assay; type: functional, cell-based; settings: KG-1, 48 h
[20] = system: HEL; test: cells; type: functional, cell-based; settings: Homo sapiens, 48 h
Description: Antiproliferative activity against HEL cells assessed as inhibition of cell growth measured after 48 hrs by MTT assay

Sequence of Histone deacetylase 2 (Q92769 whole entry): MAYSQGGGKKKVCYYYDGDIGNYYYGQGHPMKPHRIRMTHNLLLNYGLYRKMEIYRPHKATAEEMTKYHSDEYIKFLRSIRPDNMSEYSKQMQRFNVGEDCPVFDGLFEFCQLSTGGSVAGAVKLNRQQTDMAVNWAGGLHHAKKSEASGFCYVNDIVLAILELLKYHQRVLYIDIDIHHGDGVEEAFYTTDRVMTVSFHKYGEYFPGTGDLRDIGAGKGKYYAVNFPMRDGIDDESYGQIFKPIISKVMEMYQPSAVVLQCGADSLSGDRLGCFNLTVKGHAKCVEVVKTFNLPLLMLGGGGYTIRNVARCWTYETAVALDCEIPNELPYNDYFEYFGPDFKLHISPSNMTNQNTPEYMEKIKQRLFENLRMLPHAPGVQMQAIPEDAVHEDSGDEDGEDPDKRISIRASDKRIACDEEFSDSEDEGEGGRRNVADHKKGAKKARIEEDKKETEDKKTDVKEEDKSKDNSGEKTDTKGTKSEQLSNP
Sequence of Histone deacetylase 1 (Q13547 whole entry): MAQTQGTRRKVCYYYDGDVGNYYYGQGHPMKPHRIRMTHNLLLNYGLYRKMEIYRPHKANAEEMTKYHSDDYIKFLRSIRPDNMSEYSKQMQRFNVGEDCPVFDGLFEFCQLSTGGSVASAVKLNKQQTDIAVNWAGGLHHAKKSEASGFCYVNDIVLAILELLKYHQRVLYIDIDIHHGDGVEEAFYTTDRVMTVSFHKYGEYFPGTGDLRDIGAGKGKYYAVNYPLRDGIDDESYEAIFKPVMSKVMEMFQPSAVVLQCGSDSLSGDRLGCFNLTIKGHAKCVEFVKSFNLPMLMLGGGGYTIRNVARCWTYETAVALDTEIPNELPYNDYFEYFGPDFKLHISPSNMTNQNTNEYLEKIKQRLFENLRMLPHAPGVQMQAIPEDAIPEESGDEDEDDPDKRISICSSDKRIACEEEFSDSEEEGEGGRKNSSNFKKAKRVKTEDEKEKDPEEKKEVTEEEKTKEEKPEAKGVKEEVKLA

For `O=C(CCCCCCCOc1cccc(-c2nc3ccccc3[nH]2)c1)NO`, the Activity [1] was “Non-Toxic”, the IC50 [2] was 91 nM and the Activity [3] was “Non-Toxic”. For the same compound, the IC50 [4] was 52 nM, the “fold change (FC)” value [5] was 1.6 and the IC50 [6] was 7.9 µM. It also gave an IC50 [7] of 3.97 µM, an IC50 [8] of 9.2 nM and an IC50 [9] of 7.9 nM. The IC50 [10] was 990 nM, the Activity [11] was “Active” and the Activity [12] was “Active”. For the same compound, the Activity [13] was “Active”, the Activity [14] was “Active” and the “fold change (FC)” value [15] was 1.3. The Activity [16] was “Active”, the IC50 [17] was 12.9 nM and the Activity [18] was “Non-Toxic”. For the same compound, the IC50 [19] was 3400 nM and the IC50 [20] was 360 nM.

For `O=C(CCCCCCOc1cccc(-c2nc3ccccc3[nH]2)c1)NO`, the Activity [1] was “Non-Toxic”, the IC50 [2] was 46 nM and the Activity [3] was “Non-Toxic”. The IC50 [4] was 24 nM, the “fold change (FC)” value [5] was 1.6 and the IC50 [6] was 2.7 µM. For the same compound, the IC50 [7] was 4.8 µM, the IC50 [8] was 47 nM and the IC50 [9] was 13.2 nM. The IC50 [10] was 290 nM, the Activity [11] was “Active” and the Activity [12] was “Active”. The Activity [13] was “Active”, the Activity [14] was “Active” and the “fold change (FC)” value [15] was 1.3. For the same compound, the Activity [16] was “Active”, the IC50 [17] was 5980 nM and the Activity [18] was “Non-Toxic”. For the same compound, the IC50 [19] was 190 nM and the IC50 [20] was 20 nM.
